The target of data set [1] is T1, Organic anion transporter 3 (Rattus norvegicus, UniProt Q9R1U7).
T1 sequence (Q9R1U7 whole entry): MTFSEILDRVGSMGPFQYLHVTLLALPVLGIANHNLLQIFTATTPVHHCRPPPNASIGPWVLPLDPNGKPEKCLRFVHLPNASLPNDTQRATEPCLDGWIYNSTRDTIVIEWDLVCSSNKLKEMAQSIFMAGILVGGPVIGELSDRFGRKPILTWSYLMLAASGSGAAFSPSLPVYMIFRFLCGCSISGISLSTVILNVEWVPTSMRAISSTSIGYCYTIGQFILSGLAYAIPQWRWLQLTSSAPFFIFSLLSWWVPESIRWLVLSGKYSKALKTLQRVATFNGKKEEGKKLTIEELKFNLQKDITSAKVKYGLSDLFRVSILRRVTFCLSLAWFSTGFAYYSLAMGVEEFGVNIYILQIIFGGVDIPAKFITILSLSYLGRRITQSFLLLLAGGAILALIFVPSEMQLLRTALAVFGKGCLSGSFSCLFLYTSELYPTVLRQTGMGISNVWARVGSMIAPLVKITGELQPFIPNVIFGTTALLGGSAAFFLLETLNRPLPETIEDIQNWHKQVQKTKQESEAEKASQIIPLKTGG
The experiment in a line: TP_TRANSPORTER: inhibition of E217betaG uptake in Oat3-expressing LLC-PK1 cells. In kind it is functional, cell-based.

The target in data set [2] is T2, Solute carrier organic anion transporter family member 1A4 (Rattus norvegicus, UniProt O35913).
T2 sequence (O35913 whole entry): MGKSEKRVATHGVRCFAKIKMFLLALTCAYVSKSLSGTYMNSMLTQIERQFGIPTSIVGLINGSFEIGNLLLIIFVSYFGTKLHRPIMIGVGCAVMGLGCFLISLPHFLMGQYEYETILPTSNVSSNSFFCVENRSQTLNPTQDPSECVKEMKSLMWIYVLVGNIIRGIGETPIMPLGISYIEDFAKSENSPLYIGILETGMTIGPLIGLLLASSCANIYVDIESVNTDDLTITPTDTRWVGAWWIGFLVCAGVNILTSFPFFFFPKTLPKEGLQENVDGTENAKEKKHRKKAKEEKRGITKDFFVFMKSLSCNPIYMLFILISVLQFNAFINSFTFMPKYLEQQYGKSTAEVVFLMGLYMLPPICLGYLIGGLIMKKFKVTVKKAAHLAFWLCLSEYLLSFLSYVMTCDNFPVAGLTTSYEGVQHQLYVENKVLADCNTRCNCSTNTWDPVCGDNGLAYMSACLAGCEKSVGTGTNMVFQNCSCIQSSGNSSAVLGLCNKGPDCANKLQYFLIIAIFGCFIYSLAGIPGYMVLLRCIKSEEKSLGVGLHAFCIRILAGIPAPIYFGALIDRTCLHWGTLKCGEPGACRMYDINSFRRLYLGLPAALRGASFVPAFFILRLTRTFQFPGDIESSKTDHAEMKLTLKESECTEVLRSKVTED
The experiment in a line: TP_TRANSPORTER: inhibition of E217betaG uptake in Oatp2-expressing LLC-PK1 cells. The data set is classed as functional, cell-based.

Data set [3] has as its target T3, Solute carrier organic anion transporter family member 1A1 (Rattus norvegicus, UniProt P46720).
T3 sequence (P46720 whole entry): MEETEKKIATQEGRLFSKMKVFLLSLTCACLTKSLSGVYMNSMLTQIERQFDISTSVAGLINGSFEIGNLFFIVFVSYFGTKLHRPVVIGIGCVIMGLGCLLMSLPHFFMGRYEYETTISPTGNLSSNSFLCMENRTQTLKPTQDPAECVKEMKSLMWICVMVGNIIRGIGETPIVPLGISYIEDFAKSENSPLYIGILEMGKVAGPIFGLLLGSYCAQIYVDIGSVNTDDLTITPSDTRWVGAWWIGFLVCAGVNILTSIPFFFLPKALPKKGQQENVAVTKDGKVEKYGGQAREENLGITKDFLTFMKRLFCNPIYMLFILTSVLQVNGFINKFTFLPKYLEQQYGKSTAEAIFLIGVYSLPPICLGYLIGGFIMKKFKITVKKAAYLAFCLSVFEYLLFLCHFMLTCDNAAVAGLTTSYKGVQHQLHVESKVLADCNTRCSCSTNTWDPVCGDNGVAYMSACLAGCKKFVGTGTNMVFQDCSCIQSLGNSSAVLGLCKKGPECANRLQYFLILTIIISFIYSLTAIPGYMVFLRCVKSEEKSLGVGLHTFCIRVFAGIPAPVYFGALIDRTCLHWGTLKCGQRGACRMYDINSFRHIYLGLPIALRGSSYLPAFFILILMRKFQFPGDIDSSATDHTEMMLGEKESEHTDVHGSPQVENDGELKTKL
The experiment in a line: TP_TRANSPORTER: inhibition of E217betaG uptake in Oatp1-expressing LLC-PK1 cells. In kind it is functional, cell-based.

Substrate in data set [4]: C[C@]12CC[C@@H]3c4ccc(O)cc4CC[C@H]3[C@@H]1CC[C@@H]2O[C@@H]1O[C@H](C(=O)O)[C@@H](O)[C@H](O)[C@H]1O
The experiment in a line: TP_TRANSPORTER: uptake in Oatp2-expressing LLC-PK1 cells. The data set is classed as functional, cell-based.

Substrate in data set [5]: C[C@]12CC[C@@H]3c4ccc(O)cc4CC[C@H]3[C@@H]1CC[C@@H]2O[C@@H]1O[C@H](C(=O)O)[C@@H](O)[C@H](O)[C@H]1O
The experiment in a line: TP_TRANSPORTER: uptake in Oatp1-expressing LLC-PK1 cells. In kind it is functional, cell-based.

Substrate in data set [6]: Nc1ccc(C(=O)NCC(=O)O)cc1
The data set is described as follows: cells, lysate or membranes named.

With `Nc1ccc(C(=O)NCC(=O)O)cc1` [AMINOHIPPURIC ACID], in data set [1], affinity was put at a Ki of 301 µM.
For `CCCN(CCC)S(=O)(=O)c1ccc(C(=O)O)cc1` [PROBENECID], the Ki in data set [2] stood at 72.9 µM; in data set [3] it was 74.4 µM; in data set [1], 20 µM.

B1: Solute carrier organic anion transporter family member 1A4 (Rattus norvegicus) (protein)
chain: T2 sequence (O35913 whole entry)
Turning to B1, the Michaelis-Menten constant (Km) in data set [4] was 17 µM.

B2: Solute carrier organic anion transporter family member 1A1 (Rattus norvegicus) (protein)
chain: T3 sequence (P46720 whole entry)
In the case of B2, the Michaelis constant (Km) in data set [5] was 2.58 µM.

B3: Solute carrier family 22 member 6 (Rattus norvegicus) (protein)
chain: MAFNDLLKQVGGVGRFQLIQVTMVVAPLLLMASHNTLQNFTAAIPPHHCRPPANANLSKDGGLEAWLPLDKQGQPESCLRFTSPQWGPPFYNGTEANGTRVTEPCIDGWVYDNSTFPSTIVTEWNLVCSHRAFRQLAQSLYMVGVLLGAMVFGYLADRLGRRKVLILNYLQTAVSGTCAAYAPNYTVYCVFRLLSGMSLASIAINCMTLNVEWMPIHTRAYVGTLIGYVYSLGQFLLAGIAYAVPHWRHLQLVVSVPFFIAFIYSWFFIESARWYSSSGRLDLTLRALQRVARINGKQEEGAKLSIEVLRTSLQKELTLSKGQASAMELLRCPTLRHLFLCLSMLWFATSFAYYGLVMDLQGFGVSMYLIQVIFGAVDLPAKFVCFLVINSMGRRPAQMASLLLAGICILVNGIIPKSHTIIRTSLAVLGKGCLASSFNCIFLYTGELYPTVIRQTGLGMGSTMARVGSIVSPLVSMTAEFYPSMPLFIFGAVPVVASAVTALLPETLGQPLPDTVQDLKSRSRGKQNQQQQEQQKQMMPLQASTQEKNGL
With B3, the Michaelis constant (Km) in data set [6] worked out at 85.1 µM.

Source of the values: ChEMBL document CHEMBL2073842, “Characterization of the efflux transport of 17beta-estradiol-D-17beta-glucuronide from the brain across the blood-brain barrier” (J Pharmacol Exp Ther, 2001).
